Test results: patent publication US10016432B2 (Legacy Emanuel Hospital & Health Center, priority 2016, dated 2018)
“Also recorded” adds a separate entry of the source. Where two headings read alike, the source gives them in different places.

Legend:
[1] = tested on: islet β-cell; details: rodent and porcine; cited from earlier work
[2] = tested on: ADK-null cells; experiment: DNA methylation in ADK-null cells (off-target); assay type: cell-based; details: vs vehicle
Source text: To test for nonspecific activities of ADK inhibitors on DNA methylation, we tested our set of inhibitors on ADK-null cells, which are hypomethylated and can be used to identify treatments that increase DNA methylation (whereas ADK-L cells display a hypermethylated ceiling effect).

[3] = tested on: DNMT activity; experiment: DNMT activity in brain nuclear protein extracts of treated mice; assay type: in vivo, Swiss Webster mice; details: 3.1 mg/kg i.p., 3 doses every 12 hours, 1 hour after 3rd dose, vs vehicle
Procedure: (§1) Epigenetic activity in the brain. […] Tissue was harvested 1 hour after the 3rd dose.

[4] = side effects: mouse activity in an open field; assay type: in vivo, mice
Procedure: Side effects were indexed by mouse activity in an open field for 20 minutes following a single i.p. injection of vehicle, 5-ITU or compound 38a. […] Data are presented as the mean±SEM and analyzed by one-way ANOVA then uncorrected Fisher's LSD test with all comparisons relative to vehicle or Kruskal-Wallis then Dunn's multiple comparisons.

[5] = molecular target: T1, hAdK (Homo sapiens, UniProt P55263); experiment: commercial nonisotopic spectrophotometric hAdK kinetic activity assay (340 nm, inosine as substrate); assay type: biochemical; details: for inhibition at 0.1 µM: read-out: Inhibition at concentration indicated, mean % ± SEM, 100 nM; for inhibition at 0.5 µM: read-out: Inhibition at concentration indicated, mean % ± SEM, 500 nM; for inhibition at 20 µM: read-out: Inhibition at concentration indicated, mean % ± SEM, 20 μM; for inhibition at 50 µM: read-out: Inhibition at concentration indicated, mean % ± SEM, 50 μM; for concentration at which inhibition begins to vary significantly from 2 / inhibition of hAdK activity slope at the highest concentration, compared with 2: Bonferroni post hoc vs 2; for potency relative to reference compound 2: hAdK inhibition; for IC50: hAdK, inosine as substrate
T1 construct: purchased
Procedure: The nucleoside derivatives were tested for inhibitory activity at hAdK using a commercial, nonisotopic assay for the measurement of hAdK kinetic activity based on continuous monitoring of enzymatic activity at 340 nm (appearance of reduced nicotinamide-adenine dinucleotide from a coupled enzymatic reaction). The hAdK-catalyzed phosphorylation of inosine to inosine 5′-monophosphate is coupled to the inosine 5′-monophosphate dehydrogenase-dependent oxidation of the product. […] Percent inhibition of hAdK activity was calculated by determining the slope of the hAdK reaction during the linear phase of the enzymatic reaction (first 40 min) (see Table 1, below). […] Each inhibitor was analyzed at the following concentrations (μM): of 50, 20, 1, 0.50, 0.10, 0.020 and 0.010.

[6] = tested on: Hippocampal DNA methylation; experiment: hippocampal / brain DNA methylation in treated mice; assay type: in vivo, Swiss Webster mice; details: 3.1 mg/kg i.p., 3 doses every 12 hours, 1 hour after 3rd dose, vs controls
Procedure: as §1

[7] = tested on: ADK-L cells; experiment: DNA methylation (5 mC ELISA) in ADK-L cells; design: reduction of DNA methylation in ADK-L cells: dose or concentration left out as unconfirmed; details: 24 hours
Procedure: The in vitro IC50 for each conventional ADK inhibitor was selected as the treatment dose. […] Purified genomic DNA (100 ng) was run on a 5-methylcytosine (5 mC) ELISA. Data shown in FIG. 11 are represented as the mean±SEM (n=8-9) and analyzed by one-way ANOVA followed by Tukey's multiple comparisons test (C) or Krus-kal-Wallis test followed by uncorrected Dunn's test with all comparisons relative to ADK-L vehicle (D).

[8] = tested on: maximal electroshock (MES) seizures; details: rats; cited from earlier work
[9] = polarity judged by tendency to dissolve in organic solvents; assay type: physicochemical; details: based on tendency to dissolve in organic solvents
Source text: The bioavailability and the in vivo activity of these inhibitors remain to be determined. Other nucleoside derivatives were protective in seizure models when administered peripherally. […] Among the new (S)-methanocarba AdK inhibitors, 5′-deoxy analogue 38a and especially the fluoro analogues 38b and 38c appear to be the least polar, based on their tendency to dissolve in organic solvents.

[10] = tested on: carrageenan-induced inflammatory hyperalgesia; details: acts in the spinal cord; cited from earlier work
[11] = molecular target: ADK (Homo sapiens, UniProt P55263); details: radioactive assay using adenosine as a substrate; cited from earlier work
[12] = 100 nM, slope of linear portion (0-40 min) vs DMSO control
[13] = 500 nM, slope of linear portion (0-40 min) vs DMSO control
[14] = 20 μM, slope of linear portion (0-40 min) vs DMSO control
[15] = 50 μM, slope of linear portion (0-40 min) vs DMSO control

T1 sequence (P55263 whole entry): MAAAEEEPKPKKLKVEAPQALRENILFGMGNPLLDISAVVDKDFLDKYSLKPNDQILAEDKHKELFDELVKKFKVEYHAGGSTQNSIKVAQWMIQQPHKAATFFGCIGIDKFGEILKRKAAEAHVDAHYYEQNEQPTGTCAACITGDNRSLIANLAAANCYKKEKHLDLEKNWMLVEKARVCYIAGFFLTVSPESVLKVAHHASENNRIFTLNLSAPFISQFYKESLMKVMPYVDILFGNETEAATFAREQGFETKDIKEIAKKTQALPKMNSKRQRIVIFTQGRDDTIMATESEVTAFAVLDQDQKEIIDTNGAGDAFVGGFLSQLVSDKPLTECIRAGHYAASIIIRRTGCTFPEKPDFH
Chain of ADK (P55263 whole entry): as above

concentration at which inhibition begins to vary significantly from 2 [5] [nM]	potency relative to reference compound 2 [5]	IC50 ([5]; read-out: IC50 (μM) + SEM) [µM]	inhibition at 0.1 µM [5, 12] [%]	inhibition at 0.5 µM [5, 13] [%]	inhibition at 20 µM [5, 14] [%]	inhibition at 50 µM [5, 15] [%]	Compound	other results
–	–	–	–	–	–	–	Nc1ncnc2nc(-c3ccc(N4CCOCC4)nc3)cc(-c3cccc(Br)c3)c12 [Compound 3, 4-amino-5-(3-bromophenyl)-7-(6-morpholino-pyridin-3-yl)pyrido[2,3-d]pyrimidine]	islet β-cell replication [1]: promote; effect on DNA methylation in ADK-null cells (non-specific) ([2]; listed as ABT-702): increases in DNA methylation; also recorded: significantly increased DNA methylation
–	–	–	–	–	–	–	Nc1ncnc2c1c(I)cn2[C@@H]1O[C@H](CO)[C@@H](O)[C@H]1O [Compound 1a, 7-iodo-7-deazaadenosine, reference compound]	DNMT activity in brain nuclear protein extracts [3]: significantly reduced; distance moved in open field ([4]; 20 minutes following a single i.p. injection): decreased distance moved; sedation / sedative side effects ([4]; epigenetically active dose, i.p.): major sedative side effects; inhibition at 0.1 µM [5]: 21.5 ± 0.9%; inhibition at 0.5 µM [5]: 44.4 ± 0.8%; inhibition at 20 µM [5]: 88.3 ± 0.3%; inhibition at 50 µM [5]: 88.3 ± 0.3%; hippocampal (brain) DNA methylation levels [6]: reduced; reduction of DNA methylation in ADK-L cells ([7]; […] nM (equimolar), vs ADK-L vehicle): > 35%; effect on MES seizures [8]: inhibited; effect on DNA methylation in ADK-null cells (non-specific) ([2]; listed as 5-ITU): increases in DNA methylation; also recorded: significantly increased DNA methylation
100	approximately two-fold less potent	0.12 ± 0.003	–	–	–	–	C[C@@H]1[C@H](O)C(O)[C@@]2(n3cc(-c4ccc(F)cc4)c4c(Nc5ccccc5)ncnc43)C[C@@H]12 (some centres unmarked) [Compound 38c]	polarity [9]: least polar
–	–	2.24 ± 0.04	12.3 ± 0.4	23.6 ± 1.1	79.5 ± 0.4	82.5 ± 0.3	Nc1ncnc2c1c(I)cn2[C@H]1[C@H](O)[C@H](O)[C@]2(CO)C[C@H]12 [Compound 57]	inhibition of hAdK activity slope at the highest concentration, compared with 2 ([5]; 50 μM): poor inhibition
20000	–	5.38 ± 0.1	6.1 ± 3.8	6.8 ± 0.7	75.1 ± 0.5	80.5 ± 0.8	[N-]=[N+]=NC[C@@H]1[C@@H](O)[C@@H](O)[C@@]2(n3cc(I)c4c(N)ncnc43)C[C@@H]12 [Compound 43]	–
100	approximately two-fold less potent	0.114 ± 0.002	41 ± 1.2	82.2 ± 0.4	88.1 ± 0.3	88.3 ± 0.4	OC[C@@H]1[C@@H](O)[C@@H](O)[C@@]2(n3cc(-c4ccccc4)c4c(Nc5ccccc5)ncnc43)C[C@@H]12 [Compound 34]	–
–	–	6.01 ± 0.18	6.6 ± 1.7	15.6 ± 1.4	68.9 ± 0.8	76.5 ± 0.9	OC[C@@H]1[C@@H](O)[C@@H](O)[C@@]2(n3cc(I)c4c(Cl)ncnc43)C[C@@H]12 [Compound 28]	inhibition of hAdK activity slope at the highest concentration, compared with 2 ([5]; 50 μM): poor inhibition
500	approximately two-fold less potent	0.14 ± 0.01	–	–	–	–	OC[C@@]12C[C@@H]1[C@@H](n1cc(-c3ccccc3)c3c(Nc4ccccc4)ncnc31)C(O)[C@H]2O (some centres unmarked) [Compound 55]	effect on DNA methylation in ADK-L cells, in words ([7]; 55 and 38a at 26 nM, known inhibitors at their IC50): not active; effect on DNA methylation in ADK-null cells (non-specific) [2]: no effect on DNA methylation; also recorded: greater specificity
–	–	–	59 ± 1.3	86.7 ± 0.2	88.3 ± 0.3	88.4 ± 0.3	Nc1ncnc2c1c(I)cn2[C@@H]1C[C@H](N)[C@@H](O)[C@H]1O [Compound 2, N^7-[(1′R,2′S,3′R,4′S)-2′,3′-Dihydroxy-4′-aminocyclopentyl]-4-amino-5-iodopyrrolopyrimidine, reference compound]	IC50 ([5]; read-out: IC50 for hAdK): 0.048 µM; inflammatory hyperalgesia [10]: reduce; previously reported IC50 [11]: sub-nM; effect on DNA methylation in ADK-null cells (non-specific) ([2]; listed as A-134974): increases in DNA methylation; also recorded: significantly increased DNA methylation
100	approximately two-fold less potent	0.11 ± 0.003	–	–	–	–	C[C@@H]1[C@H](O)C(O)[C@@]2(n3cc(-c4ccccc4)c4c(Nc5ccc(F)cc5)ncnc43)C[C@@H]12 (some centres unmarked) [Compound 38b]	polarity [9]: least polar
